The structures appear in SMILES notation. Converted amounts (≈) assume the structure as drawn. Counter-ions that a name gives are not always drawn.

One data set deals with C. albicans IFM 40009. The data set can be described thus: In vivo activities against the Candida albicans murine model. Conditions: male ICR mice, C. albicans IFM 40009 3×10^6 cells/mouse i.v.; 1 mg/kg intravenously once daily for 4 days; observed 14 days; ***P < 0.001 relative to Infection control. The method, then:
Four-week-old male ICR mice were fasted for 6 hours. The mice were inoculated at 3×10^6 cells/mouse of C. albicans IFM 40009 into the tail vein. The infection control group and the drug-treated group consisted of 10 and 5 animals, respectively. The compound of Example 1 and the parent compound were dissolved in 20% polyethylene glycol 200. The drug solutions were intravenously administered at the dose of 1 mg/kg once daily for 4 consecutive days after infection. […] Paired comparison of duration of survival between the infection control and drug-treated groups were analyzed by Log-Rank test.

A short description of data set [1]: Aqueous solubility comparison. Type of data set: physicochemical. The note with it: water (aqueous solubility), parent compound in the form of a free base. An excerpt:
The compound obtained in Example 1 was compared in aqueous solubility with a parent (non-phosphorylated) compound (in the form of a free base).

`CCS(=O)(=O)C(F)(F)C(Cn1cncn1)(OP(=O)(O)O)c1ccc(F)cc1F` (single isomer, unassigned; (+)) [Example 1, (+)-1-(2,4-difluorophenyl)-2-(ethylsulfonyl)-2,2-difluoro-1-(1H-1,2,4-triazole-1-ylmethyl)ethyl Dihydrogen Phosphate]: the Average surviving days with C. albicans IFM 40009 is listed as 14.0*** days. Also, the solubility in data set [1] turned out to be 4800 µg/mL.

With `CS(=O)(=O)C(F)(F)C(Cn1cncn1)(OP(=O)(O)O)c1ccc(F)cc1F` (centres unmarked) (as salt: phosphate), the melting point fell in the range of 216 to 218 °C.

On to `CCS(=O)(=O)C(F)(F)C(O)(Cn1cncn1)c1ccc(F)cc1F` (single isomer, unassigned; (-)) [Parent compound, (−)-2-(2,4-difluorophenyl)-1-(ethylsulfonyl)-1,1-difluoro-3-(1H-1,2,4-triazol-1-yl)-2-propanol, reference compound], for which the Average surviving days in the data set on C. albicans IFM 40009 is 14.0*** days. In addition, the solubility in data set [1] is 500 µg/mL (≈ 1360 µM).

As a reminder, the solubility is the concentration that dissolves in the medium under given conditions. What is called melting point is the temperature, or range, at which the solid turns liquid.

These data come from patent US6528500B1, “Azole derivatives or salts thereof” (SSP Co., Ltd., priority 1999, dated 2003).
